Entries after “also recorded” stand apart in the source; their conditions may differ.
Key:
[1] = system: canine glioma (CG) cells; assay: cell surface oligosaccharide display of canine glioma cells (lectin binding, Scatchard, Gibb's Free Energy); type: cell-based; details: control 14.9 kcal
Text: Taken together these affinity differences account for almost 10 kcal of additional binding energy retrievable from interactions in the case of the IMR-90s which is unavailable to the CGs. […] This treatment regimen results in an increase in the Tg of the cells as well as changes in the proton linewidth of unfrozen water (shown below). […] This display more closely resembles that of the growth regulated IMR-90s. It should be noted that the actual lines on these figures are visual estimates however, the data in the boxes are calculated values. It is these values that are used to estimate the GFE for comparison purposes.
(§1) The cell surface oligosaccharide display was assessed by methods developed previously. In brief, cells from a sub-culturing were aliquotted into 96 well trays at 5×10^5 cells per ml, 100 μL aliquots. After 16 hours of culture the cells were washed, fixed, and blocked with 0.1% BSA/PBS. Optimal lectin concentrations (5 μg/ml)were used to give 80 to 90% saturation of the available sites. Three carbohydrate ligands at 10 μg concentrations in triplicate or quadruplicate were then used to prepare competition curves for the lectin binding. The Bound over Free (B/F) ratio was calculated and the Ligand microprocessor program was used to determine the optimal fit of the data to a polynomial generated model. The Gibb's Free Energy (GFE) was calculated from the Scatchard data on the competition assay by the following equation: GFE=-RT 1n Kequit. The proton NMR linewidth measurements were conducted as described previously.

[2] = system: canine glioma (CG) cells; assay: proton NMR T-2* linewidth of canine glioma cells; type: cell-based; parameters: T-2* linewidth / T-2* linewidth after treatment withdrawal / T-2* linewidth after t-butanol extraction: unit not given here; details: for T-2* linewidth after treatment withdrawal: 4 weeks treatment then 1 week without, mean ± SD of 3; for T-2* linewidth after t-butanol extraction: treated CG cells
Experimental: The cells used for all these experiments are between passage 30 and passage 75.
as §1, with “After 16 hours of culture the cells were washed, fixed, and blocked with 0.1% BSA/PBS.” left out

[3] = system: plaque forming cells (splenocytes); assay: effect of swainsonine on humoral immunity (PFC assay); type: in vivo, mouse; details: for PFC versus control in words: listed as Sw
Experimental: The plaque forming cell (PFC) assay was done according to the method developed by Jerne and Nordin (1963). The splenocytes were washed in serum-free RPMI-1640 and brought to a final concentration of 1×10^6 cell/100 μl. Sheep red blood cells (sRBC), from The Colorado Serum Company, were labelled with protein A from Staphylococcus aureus (Sigma). The sRBC's were washed 3 times with saline (0.85% NaCl), the packed cells were then incubated with 1 ml of protein A (0.5 mg/ml saline) and 10 ml of saline containing 0.1 μl of CrCl3 (35% solution) (Aldrich), for 20 minutes. The sRBC's were then washed 3 times with PBS and suspended in PBS to make a 30% solution. The sRBC's (50 μl) and splenocytes (100 μl) were combined with SeaPlaque agarose (FMC Corporation) and smeared on a 75 mm×50 mm microscope slide to form a lawn of target red blood cells with uniformly dispersed effector cells. Each sample was done in triplicate. The agarose was allowed to harden and the slides were placed in trays containing serum-free RPMI-1640. The trays were incubated at 37° C. in a CO2 incubator for 90 min. After incubation the slides were placed in slide holders containing normal saline for a wash step. The rabbit/anti-mouse antibody (DAKO Corporation) was diluted 1:400 with serum free RPMI-1640 and added to the slide trays. Following another 90 min. incubation at 37° C. in a CO2 incubator, the slides were again washed. Fresh frozen guinea pig complement (GIBCO) (2%) in serum-free RPMI-1640 was added to the slide trays and incubated for another 60 to 90 min. depending on the time necessary for plaque formation. The number of plaques were counted and the results reported as number of plaque forming cells per 1×10^6 splenocytes.
Mice were pretreated for 3 weeks with Sw (0.1 μg and 0.01 μg), and then received B16 cells. At 3 time points post tumor cell injection (day 0, 7 and 14), the mice were sacrificed and the spleens were removed. The cells were then used to determine the effect of Sw on humoral immunity. […] The presence of a day 7 tumor caused a return to baseline for all the groups. A significant difference (p=0.001) was seen on day 14 post tumor injection with the mice treated with 0.01 μg Sw.

[4] = system: plaque forming cells; details: cited from earlier work

What does the source list for O[C@H]1[C@H]2[C@H](O)CCCN2C[C@H]1O [Swainsonine, swainsonine]?
Gibb's Free Energy ([1]; 2 cycles): 15.2 kcal; Gibb's Free Energy ([1]; 4 cycles): 20.5 kcal; Gibb's Free Energy ([1]; 7 cycles): 21.9 kcal; T-2* linewidth after treatment withdrawal ([2]; 213 k): 520 ± 26; T-2* linewidth after treatment withdrawal ([2]; 223 k): 510 ± 18; T-2* linewidth after treatment withdrawal ([2]; 233 k): 430 ± 15; T-2* linewidth after treatment withdrawal ([2]; 243 k): 360 ± 10; linewidth after withdrawal versus untreated control ([2]; 4 weeks treatment, 1 week withdrawal): still significantly different from control values; linewidth change ([2]; CG cells, biomodulator treatment versus control, listed as Sw): significant (P>0.01) decreases in linewidth; also recorded: higher level of linewidth reduction than the PWM treatment; T-2* linewidth ([2]; Four week of treatment, 213 k, mean ± SD of triplicate): 480 ± 35; T-2* linewidth ([2]; Four week of treatment, 223 k, mean ± SD of triplicate): 330 ± 40; T-2* linewidth ([2]; Four week of treatment, 233 k, mean ± SD of triplicate): 300 ± 8; T-2* linewidth ([2]; Four week of treatment, 243 k, mean ± SD of triplicate): 230 ± 10; T-2* linewidth ([2]; One week of treatment, 213 k): 580; T-2* linewidth ([2]; One week of treatment, 223 k): 325; T-2* linewidth ([2]; One week of treatment, 233 k): 285; T-2* linewidth ([2]; One week of treatment, 243 k): 265; T-2* linewidth after t-butanol extraction ([2]; 213 k, extracted control 367 ± 15): 316 ± 33; T-2* linewidth after t-butanol extraction ([2]; 223 k, extracted control 337 ± 29): 271 ± 13; T-2* linewidth after t-butanol extraction ([2]; 233 k, extracted control 299 ± 30): 243 ± 29; T-2* linewidth after t-butanol extraction ([2]; 243 k, extracted control 229 ± 9): 194 ± 7; increase in plaque forming cells ([3]; 0.01 μg Sw, before tumor, p=0.001): 89%; increase in PFC over mice without Sw with day 14 tumors ([3]; 0.01 μg Sw, day 14): 108%; increase in PFC over mice without tumors or treatment ([3]; 0.01 μg Sw, day 14): 144%; PFC versus control in words ([3]; 0.1 μg Sw without tumor (p=0.04)): not as significantly different from the control group; also recorded: significant changes in the formation of plaques prior to tumor exposure; PFC versus control in words ([3]; 0.1 μg Sw, day 14 (p=0.13)): not a significant difference between the controls and these treated mice; also recorded: even higher levels; PFC numbers, SW alone ([4]; SW alone): no changes in PFC numbers; antibody formation after immunosuppressive factor ([4]; Sw 3.7-100 mg/kg i.p. 5 days): return to normal levels of antibody production
